Measurements reported in paper PMC6321484, “Deep Eutectic Solvent-Based Ultrahigh Pressure Extraction of Baicalin from Scutellaria baicalensis Georgi” (Molecules, 2018).
Values after ≈ are worked out from the molar mass of the structure shown.

Test: Equilibrium solubility of baicalin in different solvents (excess compound, HPLC)
Format: physicochemical
Details: for Solubility of Baicalin: excess compound stirred at 40 °C for 2 h, HPLC
Description: Solubility tests were carried out using distilled water, 70% ethanol and DESs with an excess of the tested compound in a capped bottle and stirred at 40 °C for 2 h. The resulting mixture containing undissolved solid compounds were centrifuged. The supernatant was transferred to a 5 mL-microtube, diluted with methanol and vortexed to a homogeneous solution. The concentration of baicalin in the solution was monitored by HPLC. All solubility tests were performed in triplicate.

## O=C(O)[C@H]1O[C@@H](Oc2cc3oc(-c4ccccc4)cc(=O)c3c(O)c2O)[C@H](O)[C@@H](O)[C@@H]1O [baicalin]
40 °C, organic solvent or mixture, thermodynamic from solid, solvent: DES-1, room temperature
  solubility thermodynamic at 2 h: 22.7 mg/mL (≈ 50.9 mM)
solvent: 70% Ethanol
  Solubility of Baicalin: 1.85 mg/g
solvent: DES-1 (ChCl-lactic acid 1:1)
  Solubility of Baicalin: 22.7 mg/g
solvent: DES-2 (ChCl-glucose 1:1)
  Solubility of Baicalin: 18.2 mg/g
solvent: DES-3 (ChCl-glycerol 1:1)
  Solubility of Baicalin: 12.35 mg/g
solvent: DES-4 (ChCl-1,4-butanediol 1:1)
  Solubility of Baicalin: 2.25 mg/g
solvent: DES-5 (ChCl-ethylene glycol 1:1)
  Solubility of Baicalin: 17.8 mg/g
solvent: Water
  Solubility of Baicalin: 0.18 mg/g
